# Reference: patent publication US8551524B2, “Anti-diabetic combinations” (priority 2007, dated 2013)
# Conditions: human, in vivo
# Source text: a. […] Laboratory results were then reviewed for these particular patients to determine which patients actually had clinically important changes in a given laboratory parameter.
Compound,patients with adverse events [%],clinically important decreases in any hematological parameter directly attributable to the drug,responsibility for clinically meaningful elevations in ALT and AST
CN(C)C(=N)N=C(N)N [metformin],10,–,–
N[C@@H](CC(=O)N1CCn2c(nnc2C(F)(F)F)C1)Cc1cc(F)c(F)cc1F [sitagliptin],8,No patient experienced clinically important decreases,not responsible for the variations
